In patent publication US12002595B2, “Separation of metal ions by liquid-liquid extraction” (priority 2016, dated 2024):
In brackets after ≈: the same amount, converted by molar mass. Where two headings read alike, the source gives them in different places.

Experiments:
[1] = La^3+; 25° C.; cited from earlier work
[2] = Persistence of the metal complex versus acidity; type: binding; details: Hf^4+
[3] = Ligand selectivity from stability constants; type: binding
Description: While this class of ligands, encompassing HOPO and catecholamide (CAM) derivatives, has been known for decades, it had never been studied in details for separation applications. In fact, a few exceptions aside, most of these chelators have only been studied with a single cation, such as Gd^3+, Th^4+, or Pu^4+, impairing broader evaluation of their metal-metal selectivity. The chemistry of some HOPO ligands was recently extended across the periodic table, highlighting their outstanding selectivity, and large superiority over polyaminocarboxylate chelators (IDA, EDTA, DTPA, etc.), typically encountered in separations (FIGS. 46A-46F). Stability constants (log βML) were calculated as described in Sturzbecher-Hoehne, M., Kullgren, B., Jarvis, E. E., An, D. D. & Abergel, R. J. Highly Luminescent and Stable Hydroxypyridinonate Complexes: A Step Towards New Curium Decontamination Strategies. Chem. Eur. J. 20, 9962-9968 (2014); Sturzbecher-Hoehne, M., Yang, P., D'Aldo, A. & Abergel, R. J. Intramolecular sensitization of americium luminescence in solution: shining light on short-lived forbidden 5f transitions. Dalton Trans. 45, 9912-9919 (2016); Deblonde, G. J.-P., Lohrey, T. D., An, D. D. & Abergel, R. J. Toxic heavy metal—Pb, Cd, Sn—complexation by the octadentate hydroxypyridinonate ligand archetype 3,4,3-LI(1,2-HOPO). New J. Chem. 42, 7649-7658 (2018). […]

[4] = Pb^2+; 25° C.; cited from earlier work
[5] = Aqueous solubility of the ligand; type: physicochemical; details: water; room temperature
[6] = Back-extraction from 30% TBP in kerosene (modified PUREX) with 343HOPO; details: 1 mM 343HOPO, up to 8 M HNO3
Description: Dotted lines: separation factor U/Pu. Organic phase: 30% TBP in kerosene.
For Example 20—Example 24, pH measurements were performed with a glass electrode (Metrohm-Micro Combi-response to [H+]) calibrated at 25.0° C. using three NIST standards. Extraction samples were analyzed by liquid scintillation counting (LSC). The distribution coefficient, D(M), of a given metal, M, is defined in Eq. 1, where [M]organic and [M]aqueous are the respective total concentrations of M in the organic and aqueous layers, after extraction. Both concentrations are proportional to the volumetric activity (in Bq/L) determined by LSC. The separation factor, SFM1/M2, between two metals, M1 and M2, and extraction yield were calculated according to Eq. 2 and Eq. 3, respectively.
In a typical experiment, the solvent (extractant diluted in kerosene) was pre-conditioned by shaking one volume of solvent with three volumes of aqueous phase (typically HNO3) at room temperature for 1 h, thrice. […] Samples were counted for at least 6 min and results were background subtracted. […] Mixtures of ^249Bk and ^249Cf were analyzed using α/β discrimination and energy windows were set to 0-50 keV for low-energy β particles of ^249Bk and 50-1000 keV for α particles of ^249Cf. ^243Am and ^225Ac samples were counted at secular equilibrium.

[7] = Extraction by HDEHP at constant pH with 3,4,3-LI(1,2-HOPO) as hold-back reagent; details: 1 mM ligand; for % Extraction: 0.1 M HNO3/1.9 M NaNO3, extraction of ^242Plutonium(IV); for SF Am^3+/Pu^4+: to be seen as lower limit
Description: (§1) In FIG. 26, aqueous phase: [ligand]=1 mM, buffer 0.1 M HNO3/1.9 M NaNO3. Organic phase: HDEHP diluted in kerosene. [HDEHP]=0.05, 0.10, 0.25, 0.50, 1.0, or 2.0 M. T=25° C. Volume organic phase/Volume aqueous phase=1. Initial metal concentrations: [Pu-242]=10 μM, [Am-243]=0.25 μM, or [Gd-153]=0.16 nM. Phases analyzed after one contact. Contact time: 30 min.
The separation factor values given here must been seen as lower limit since the extraction of Pu(IV) is near zero.

[8] = Am^3+; 25° C.; cited from earlier work
[9] = Lu^3+; 25° C.; cited from earlier work
[10] = Persistence of the metal complex versus acidity; type: binding; details: Ti^4+
[11] = Extraction by HDEHP at constant pH with 3,4,3-LI(1,2-HOPO) as hold-back reagent; details: 1 mM ligand; for % Extraction: 0.1 M HNO3/1.9 M NaNO3, extraction of ^153Gadolinium(III); for SF Gd^3+/Pu^4+: to be seen as lower limit
Description: as §1
The separation factor values given here must been seen as lower limit since the extraction of Pu(IV) is near zero. […]

For O=C(NCCCN(CCCCN(CCCNC(=O)c1cccc(=O)n1O)C(=O)c1cccc(=O)n1O)C(=O)c1cccc(=O)n1O)c1cccc(=O)n1O [3,4,3-LI(1,2-HOPO)], the “log βML” value [1] is listed as 16.4 ± 0.4, the “acidity range over which the ligand stays bound” value [2] is listed as “from pH 8 to strongly acidic solutions (at least 6 M HCl)” and the “Ce^4+/Ce^3+ selectivity above what could be expected from a carboxylate ligand” value [3] is listed as “about 15 orders of magnitude”. The “log βML” value [4] was 18.0 ± 0.2, the solubility [5] was 1000 mM (≈ 751 mg/mL) and the SFU/Pu [6] was ≤ 5,800. For the same compound, the “% Extraction” value ([7]; HDEHP 0.05 M) was 0.02%, the “SF Am^3+/Pu^4+” value ([7]; HDEHP 0.05 M) was 14 and the “% Extraction” value ([7]; HDEHP 0.10 M) was 0.02%. The “SF Am^3+/Pu^4+” value ([7]; HDEHP 0.10 M) was 84, the “% Extraction” value ([7]; HDEHP 0.25 M) was 0.05% and the “SF Am^3+/Pu^4+” value ([7]; HDEHP 0.25 M) was 236. For the same compound, the “% Extraction” value ([7]; HDEHP 0.50 M) was 0.03%, the “SF Am^3+/Pu^4+” value ([7]; HDEHP 0.50 M) was 1450 and the “% Extraction” value ([7]; HDEHP 1.00 M) was 0.16%. The “SF Am^3+/Pu^4+” value ([7]; HDEHP 1.00 M) was 624, the “% Extraction” value ([7]; HDEHP 2.00 M) was 0.21% and the “SF Am^3+/Pu^4+” value ([7]; HDEHP 2.00 M) was 649. For the same compound, the “log βML” value [8] was 20.4 ± 0.2, the “log βML” value [9] was 21.2 ± 0.1 and the “acidity range over which the ligand stays bound” value [10] was “from pH 6 to 10 M HCl (at least)”. For the same compound, the “% Extraction” value ([11]; HDEHP 0.05 M) was 4.92%, the “SF Gd^3+/Pu^4+” value ([11]; HDEHP 0.05 M) was 331 and the “% Extraction” value ([11]; HDEHP 0.10 M) was 23.79%. For the same compound, the “SF Gd^3+/Pu^4+” value ([11]; HDEHP 0.10 M) was 1948, the “% Extraction” value ([11]; HDEHP 0.25 M) was 73.91% and the “SF Gd^3+/Pu^4+” value ([11]; HDEHP 0.25 M) was 5976. For the same compound, the “% Extraction” value ([11]; HDEHP 0.50 M) was 92.15%, the “SF Gd^3+/Pu^4+” value ([11]; HDEHP 0.50 M) was 39182 and the “% Extraction” value ([11]; HDEHP 1.00 M) was 97.85%. The “SF Gd^3+/Pu^4+” value ([11]; HDEHP 1.00 M) was 28460, the “% Extraction” value ([11]; HDEHP 2.00 M) was 99.26% and the “SF Gd^3+/Pu^4+” value ([11]; HDEHP 2.00 M) was 64723.
